Key:
[1] = tested on: POLCO (wild buckwheat); assay: Pre-emergence herbicidal activity, cool season; type: in vivo, Polygonum convolvulus; conditions: lowest tested rate with 80% or greater inhibition; rates 300, 100, 30, 10 g/ha; about 14 days
How it was run: (§1)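 Under 18/13 °C (ALOMY, POLCO) or 30/21 °C (PANMI, DIGSA) day/night, pre-emergence soil-surface treatments at 300, 100, 30 and 10 g/ha were evaluated after roughly 14 days. GR80 reflects percent inhibition relative to untreated plants.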

[2] = tested on: AVEFA (wild oat); assay: Post-emergence herbicidal activity, cool season; type: in vivo, Avena fatua; conditions: abraded plants sprayed at 300, 100, 30 and 10 g/ha; about 14 days after treatment
Method: (§2) In another set of tests, the post-emergence activity of compounds of this invention was evaluated on the cool season species listed above. The following procedure was used.
(§3) A pre-prepared topsoil mixture (described above) was placed in a pot and compacted to a depth of 1.0 to 1.25 cm from the top of the pot. Seeds of each of several monocotyledonous and dicotyledonous annual plant species were placed on top of the soil. The seeds were covered with a mixture of 50% topsoil and 50% Rediearth™ in sufficient quantity to level-fill the pots. The pots were then placed on a greenhouse bench and subirrigated as needed.
(§4) When plants growing from the seeds had emerged and reached a suitable growth stage for post-emergence treatment, typically 9 to 14 days after planting, above-ground parts of the plants were subjected to a pre-treatment involving abrasion to create greater opportunity for foliar uptake of subsequently applied compounds. Abrasion was performed using garnet 200w particles applied with a Sears Craftsman hand-held sandblaster operated at approximately 850 kPa (50 psig) pressure.
(§5) A known amount of each test compound dissolved or suspended in an appropriate organic solvent was diluted with a 50:50 mix of acetone and water and applied to the plants by spraying with a standard spray nozzle in a spray volume of […] at a spray pressure of 511 kPa (30 psig). Only the compounds of Examples 1, 8-15 and 17-22 were included in post-emergence tests. Application rates for these compounds were 300, 100, 30 and 10 g/ha. Control plants were abraded but not sprayed.
(§6) After treatment the plants were placed in a greenhouse with an 18/13° C. day/night temperature regime and were subsequently watered as needed for growth. Approximately 14 days after treatment, the plants were observed and herbicidal efficacy recorded as percent inhibition by comparison with control plants. GR80 values were assigned for each compound as described above for the pre-emergence tests.

[3] = tested on: AGRRE (quackgrass (seedling)); assay: Post-emergence herbicidal activity, cool season; type: in vivo, Elymus repens; conditions: abraded plants sprayed at 300, 100, 30 and 10 g/ha; about 14 days after treatment
Method: as §2, §3, §4, §5, §6

[4] = tested on: AEGCY (jointed goatgrass); assay: Post-emergence herbicidal activity, cool season; type: in vivo, Aegilops cylindrica; conditions: abraded plants sprayed at 300, 100, 30 and 10 g/ha; about 14 days after treatment
Method: as §2, §3, §4, §5, §6

[5] = tested on: VERPE (creeping speedwell); assay: Pre-emergence herbicidal activity, cool season; type: in vivo, Veronica persicaria; conditions: lowest tested rate with 80% or greater inhibition; rates 300, 100, 30, 10 g/ha; about 14 days
How it was run: (§7)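 GR80 values derive from percent inhibition relative to untreated plants, read roughly 14 days after sowing and pre-emergence soil-surface treatment (compound in 50:50 acetone/water; rates typically 10, 30, 100, 300 g/ha). Warm-season weeds grew at 30/21° C day/night, cool-season ones at 18/13° C; an asterisk marks activity without reaching 80% at the highest rate.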

[6] = tested on: AGSST (creeping bentgrass); assay: Pre-emergence herbicidal activity, cool season; type: in vivo, Agrostis stolonifera; conditions: GR80 = lowest tested rate (300, 100, 30, 10 g/ha) with 80% or greater inhibition; approx. 14 days after treating; 18/13° C.
How it was run: as §7

[7] = tested on: SASKR (russian thistle); assay: Pre-emergence herbicidal activity, cool season; type: in vivo, Salsola kali; conditions: lowest tested rate with 80% or greater inhibition; rates 300, 100, 30, 10 g/ha; about 14 days
How it was run: as §7

[8] = tested on: BRAPP (broadleaf signalgrass); assay: Pre-emergence herbicidal activity, warm season; type: in vivo, Brachiaria platyphylla; conditions: GR80 = lowest tested rate (300, 100, 30, 10 g/ha) with 80% or greater inhibition; approx. 14 days after treating; 30/21° C.
How it was run: as §7

[9] = tested on: ECHCG (barnyardgrass); assay: Pre-emergence herbicidal activity, warm season; type: in vivo, Echinochloa crus-galli; conditions: GR80 = lowest tested rate (300, 100, 30, 10 g/ha) with 80% or greater inhibition; approx. 14 days after treating; 30/21° C.
How it was run: as §7

[10] = tested on: SETVI (green foxtail); assay: Post-emergence herbicidal activity, cool season; type: in vivo, Setaria viridis; conditions: abraded plants sprayed at 300, 100, 30 and 10 g/ha; about 14 days after treatment
Method: as §2, §3, §4, §5, §6

[11] = tested on: LAMPU (purple deadnettle); assay: Pre-emergence herbicidal activity, cool season; type: in vivo, Lamium purpureum; conditions: lowest tested rate with 80% or greater inhibition; rates 300, 100, 30, 10 g/ha; about 14 days
How it was run: as §7

[12] = tested on: PANMI (wild proso millet); assay: Pre-emergence herbicidal activity, warm season; type: in vivo, Panicum miliaceum; conditions: GR80 = lowest tested rate (300, 100, 30, 10 g/ha) with 80% or greater inhibition; approx. 14 days after treating; 30/21° C.
How it was run: as §1

[13] = tested on: GALAP (catchweed bedstraw); assay: Post-emergence herbicidal activity, cool season; type: in vivo, Galium aparine; conditions: abraded plants sprayed; GR80 = lowest tested rate (300, 100, 30, 10 g/ha) with 80% or greater inhibition; approx. 14 days after treatment; 18/13° C.
Method: as §2, §3
as §4, with “pressure. […]” for “pressure.”
as §6, with “GR80 values were assigned for each compound as described above for the pre-emergence tests.” left out

[14] = tested on: LOLMG (annual ryegrass); assay: Post-emergence herbicidal activity, cool season; type: in vivo, Lolium multiflorum; conditions: abraded plants sprayed at 300, 100, 30 and 10 g/ha; about 14 days after treatment
Method: as §2, §3, §4, §5, §6

[15] = tested on: STEME (common chickweed); assay: Pre-emergence herbicidal activity, cool season; type: in vivo, Stellaria media; conditions: lowest tested rate with 80% or greater inhibition; rates 300, 100, 30, 10 g/ha; about 14 days
How it was run: as §7

[16] = tested on: ALOMY (blackgrass); assay: Post-emergence herbicidal activity, cool season; type: in vivo, Alopecurus myosuroides; conditions: abraded plants sprayed at 300, 100, 30 and 10 g/ha; about 14 days after treatment
Method: as §2, §3, §4, §5, §6

[17] = tested on: AGSST (creeping bentgrass); assay: Post-emergence herbicidal activity, cool season; type: in vivo, Agrostis stolonifera; conditions: abraded plants sprayed at 300, 100, 30 and 10 g/ha; about 14 days after treatment
Method: as §2, §3, §4, §5, §6

[18] = tested on: BROTE (downy brome); assay: Post-emergence herbicidal activity, cool season; type: in vivo, Bromus tectorum; conditions: abraded plants sprayed at 300, 100, 30 and 10 g/ha; about 14 days after treatment
Method: as §2, §3, §4, §5, §6

[19] = tested on: SORVU (shattercane); assay: Pre-emergence herbicidal activity, warm season; type: in vivo, Sorghum vulgare; conditions: GR80 = lowest tested rate (300, 100, 30, 10 g/ha) with 80% or greater inhibition; approx. 14 days after treating; 30/21° C.
How it was run: as §7

[20] = tested on: GALAP (catchweed bedstraw); assay: Pre-emergence herbicidal activity, cool season; type: in vivo, Galium aparine; conditions: lowest tested rate with 80% or greater inhibition; rates 300, 100, 30, 10 g/ha; about 14 days
How it was run: as §7

[21] = tested on: SINAR (wild mustard); assay: Pre-emergence herbicidal activity, cool season; type: in vivo, Sinapis arvensis; conditions: lowest tested rate with 80% or greater inhibition; rates 300, 100, 30, 10 g/ha; about 14 days
How it was run: as §7

Question: Which “Pre-emergence activity GR80, POLCO” value [1] does the source give for `CCN(CC)C(=O)n1cnc(S(=O)(=O)C(F)(F)SCCO)n1` [Example 12, 1-(N,N-diethylcarbamoyl)-3-[(2-hydroxyethylthio)difluoromethylsulfonyl]-1,2,4-triazole] here?
Answer: [empty]

Question: What about the “Post-emergence activity GR80, AVEFA” value [2] of the same compound?
Answer: [empty]

Question: What about the “Post-emergence activity GR80, AGRRE” value [3] of the same compound?
Answer: [empty]

Question: What about the “Post-emergence activity GR80, AEGCY” value [4] of the same compound?
Answer: [empty]

Question: And the “Pre-emergence activity GR80, VERPE” value [5]?
Answer: [empty]

Question: What about the “Pre-emergence activity (GR80) AGSST” value [6] of the same compound?
Answer: 300 g/ha

Question: What about the “Pre-emergence activity GR80, SASKR” value [7] of the same compound?
Answer: [empty]

Question: What about the “Pre-emergence activity (GR80) BRAPP” value [8] of the same compound?
Answer: * (activity observed, at least at highest rate, but <80% inhibition)

Question: And the “Pre-emergence activity (GR80) ECHCG” value [9]?
Answer: * (activity observed, at least at highest rate, but <80% inhibition)

Question: What about the “Post-emergence activity GR80, SETVI” value [10] of the same compound?
Answer: [empty]

Question: And the “Pre-emergence activity GR80, LAMPU” value [11]?
Answer: 300 g/ha

Question: What about the “Pre-emergence activity (GR80) PANMI” value [12] of the same compound?
Answer: * (activity observed, at least at highest rate, but <80% inhibition)

Question: And the “Post-emergence activity (GR80) GALAP” value [13]?
Answer: 300 g/ha

Question: And the “Post-emergence activity GR80, LOLMG” value [14]?
Answer: [empty]

Question: And the “Pre-emergence activity GR80, STEME” value [15]?
Answer: 300 g/ha

Question: And the “Post-emergence activity GR80, ALOMY” value [16]?
Answer: [empty]

Question: And the “Post-emergence activity GR80, AGSST” value [17]?
Answer: [empty]

Question: And the “Post-emergence activity GR80, BROTE” value [18]?
Answer: [empty]

Question: What about the “Pre-emergence activity (GR80) SORVU” value [19] of the same compound?
Answer: * (activity observed, at least at highest rate, but <80% inhibition)

Question: And the “Pre-emergence activity GR80, GALAP” value [20]?
Answer: [empty]

Question: What about the “Pre-emergence activity GR80, SINAR” value [21] of the same compound?
Answer: [empty]
